biological target: T1, human MRGPRX2 (Homo sapiens, UniProt Q96LB1); assay: Ca2+ mobilization assay (FLIPR TETRA): inhibition of Cortistatin-14 mediated MRGPRX2 activation
T1 sequence (Q96LB1 1-330): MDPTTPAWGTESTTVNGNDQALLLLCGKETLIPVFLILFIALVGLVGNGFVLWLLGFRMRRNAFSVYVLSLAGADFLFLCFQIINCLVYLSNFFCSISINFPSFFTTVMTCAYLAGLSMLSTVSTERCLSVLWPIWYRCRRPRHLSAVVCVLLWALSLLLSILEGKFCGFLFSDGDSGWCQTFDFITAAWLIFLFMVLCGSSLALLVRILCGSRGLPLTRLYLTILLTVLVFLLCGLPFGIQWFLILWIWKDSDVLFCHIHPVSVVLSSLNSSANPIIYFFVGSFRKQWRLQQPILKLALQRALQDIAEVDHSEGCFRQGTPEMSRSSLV

SMILES | IC50 [nM]
COCCNCc1cc(C2CN(C(C)C(=O)Nc3ccc(Oc4ccc(F)cc4)cn3)CCC2(F)F)c[nH]c1=O (stereo not drawn) [Example 239, 2-(4,4-difluoro-3-(5-(((2-methoxyethyl)amino)methyl)-6-oxo-1,6-dihydropyridin-3-yl)piperidin-1-yl)-N-(5-(4-fluorophenoxy)pyridin-2-yl)propanamide] | ≤ 10
C[C@@H](C(=O)Nc1ccc(OCC2CC2)nn1)N1CCC(F)(F)[C@@H](c2c[nH]c(=O)c([C@H](O)C(F)(F)F)c2)C1 (single isomer, unassigned) [Example 210, (S)-N-(6-(cyclopropylmethoxy)pyridazin-3-yl)-2-((S)-4,4-difluoro-3-(6-oxo-5-((S)-2,2,2-trifluoro-1-hydroxyethyl)-1,6-dihydropyridin-3-yl)piperidin-1-yl)propanamide or (S)-N-(6-(cyclopropylmethoxy(pyridazin-3-yl)-2-((S)-4,4-difluoro-3-(6-oxo-5-((R)-2,2,2-trifluoro-1-hydroxyethyl)-1,6-dihydroypridin-3-yl)piperidin-1-yl)propanamide] | ≤ 10
CC(C(=O)Nc1ccc(Cc2cccnc2)cn1)N1CCC(F)(F)[C@@H](c2ccc(=O)[nH]c2)C1 (stereo partly drawn) [Example 45, 2-((S)-4,4-difluoro-3-(6-oxo-1,6-dihydropyridin-3-yl)piperidin-1-yl)-N-(5-(pyridin-3-ylmethyl)pyridin-2-yl)propanamide] | 3160 to 31600
C[C@@H](C(=O)Nc1ccc(Oc2ccc(F)cc2F)cn1)N1CCC(F)(F)[C@@H](c2c[nH]c(=O)c([C@@H](N)C(F)(F)F)c2)C1 (single isomer, unassigned) [Example 236] | ≤ 10
C[C@@H](C(=O)Nc1ccc(C2CC2)cn1)N1CCC(F)(F)[C@@H](c2ccc(=O)[nH]n2)C1 [Example 147] | 100 to 3160
C[C@@H](C(=O)Nc1ccc(Cl)cn1)N1CCC(F)(F)[C@@H](c2c[nH]c(=O)cn2)C1 [Example 136, (S)-N-(5-chloropyridin-2-yl)-2-((R)-4,4-difluoro-3-(5-oxo-4,5-dihydropyrazin-2-yl)piperidin-1-yl)propanamide] | 100 to 3160
C[C@@H](C(=O)Nc1ccc(OCC2CC2)nn1)N1CCC(F)(F)[C@@H](c2c[nH]c(=O)c(N)n2)C1 (single isomer, unassigned) [Example 104] | ≤ 10
CC(C(=O)Nc1ccc(OC2CCCCC2)cn1)N1CCC(F)(F)[C@@H](c2ccc(=O)[nH]c2)C1 (stereo partly drawn) [Example 24, N-(5-(cyclohexyloxy)pyridin-2-yl)-2-((S)-4,4-difluoro-3-(6-oxo-1,6-dihydropyridin-3-yl)piperidin-1-yl)propanamide] | 100 to 3160
C[C@@H](C(=O)Nc1ccc(Oc2ncccc2F)cn1)N1CCC(F)(F)[C@@H](c2cc[n+]([O-])cc2)C1 [Example 125, 4-((S)-4,4-difluoro-1-((S)-1-((5-((3-fluoropyridin-2-yl)oxy)pyridin-2-yl)amino)-1-oxopropan-2-yl)piperidin-3-yl)pyridine 1-oxide] | 10 to 100
CC(C(=O)Nc1ccc(Oc2ccc(C#N)cc2)cn1)N1CCC(F)(F)C(c2ccc(=O)[nH]c2)C1 (stereo not drawn) [Example 58, N-(5-(4-cyanophenoxy)pyridin-2-yl)-2-(4,4-difluoro-3-(6-oxo-1,6-dihydropyridin-3-yl)piperidin-1-yl)propanamide] | 100 to 3160
CC(C(=O)Nc1ccc(Oc2ccc(F)cc2)cn1)N1CCC(F)(F)C(c2c[nH]c(=O)c(CN(C)C)c2)C1 (stereo not drawn) [Example 230, 2-(3-(5-((dimethylamino)methyl)-6-oxo-1,6-dihydropyridin-3-yl)-4,4-difluoropiperidin-1-yl)-N-(5-(4-fluorophenoxy)pyridin-2-yl)propanamide] | 10 to 100
C[C@@H](C(=O)Nc1ccc(Oc2ccc(F)cc2F)cn1)N1CCC(F)(F)C(c2cncc(C(O)C(F)(F)F)c2)C1 (mixture of isomers) [Example 265, (2S)-2-(4,4-difluoro-3-(5-(2,2,2-trifluoro-1-hydroxyethyl)pyridin-3-yl)piperidin-1-yl)-N-(5-(2,4-difluorophenoxy)pyridin-2-yl)propanamide] | ≤ 10
